Key:
ΔF508-CFTR [1] = biological target: T1, ΔF508-CFTR (Homo sapiens, UniProt P13569, DEL508-508); experiment: CFTR cell surface levels using HRP-tagged ΔF508-CFTR expressing CFBE cells, in the presence of a co-corrector; type: cell-based; conditions: HRP-tagged ΔF508-CFTR expressing CFBE cells, in the presence of 3 μM co-corrector; for EC50: read-out: EC50
T1 construct: host or cells: CFBE41o-, doxycycline-inducible
How it was run: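 Cells were seeded with 0.5 μg/mL doxycycline and held 68 h at 37 °C. Test compounds plus 3 μM co-corrector (final 0.1% DMSO) were then added for 20 h at 33 °C. Washed cells received HRP substrate, and luminescence was normalized between DMSO and 3 μM co-corrector controls.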

ΔF508-CFTR [2] = biological target: T1, ΔF508-CFTR; experiment: CFTR cell surface levels using HRP-tagged ΔF508-CFTR expressing CFBE cells, intrinsic corrector capacity; type: cell-based; conditions: HRP-tagged ΔF508-CFTR expressing CFBE cells, intrinsic corrector capacity (no co-corrector), 33° C., 20 hours; for EC50: read-out: EC50
How it was run: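 Here the cells express ΔF508-CFTR with horseradish peroxidase inserted in extracellular loop 4, so only rescued channel at the surface gives luminescent signal. Compounds act on their own, 20 h at the reduced temperature of 33 °C; values are percent activity relative to DMSO and a 3 μM corrector.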

T1 sequence (P13569 with tags, fused parts or gaps DEL508-508): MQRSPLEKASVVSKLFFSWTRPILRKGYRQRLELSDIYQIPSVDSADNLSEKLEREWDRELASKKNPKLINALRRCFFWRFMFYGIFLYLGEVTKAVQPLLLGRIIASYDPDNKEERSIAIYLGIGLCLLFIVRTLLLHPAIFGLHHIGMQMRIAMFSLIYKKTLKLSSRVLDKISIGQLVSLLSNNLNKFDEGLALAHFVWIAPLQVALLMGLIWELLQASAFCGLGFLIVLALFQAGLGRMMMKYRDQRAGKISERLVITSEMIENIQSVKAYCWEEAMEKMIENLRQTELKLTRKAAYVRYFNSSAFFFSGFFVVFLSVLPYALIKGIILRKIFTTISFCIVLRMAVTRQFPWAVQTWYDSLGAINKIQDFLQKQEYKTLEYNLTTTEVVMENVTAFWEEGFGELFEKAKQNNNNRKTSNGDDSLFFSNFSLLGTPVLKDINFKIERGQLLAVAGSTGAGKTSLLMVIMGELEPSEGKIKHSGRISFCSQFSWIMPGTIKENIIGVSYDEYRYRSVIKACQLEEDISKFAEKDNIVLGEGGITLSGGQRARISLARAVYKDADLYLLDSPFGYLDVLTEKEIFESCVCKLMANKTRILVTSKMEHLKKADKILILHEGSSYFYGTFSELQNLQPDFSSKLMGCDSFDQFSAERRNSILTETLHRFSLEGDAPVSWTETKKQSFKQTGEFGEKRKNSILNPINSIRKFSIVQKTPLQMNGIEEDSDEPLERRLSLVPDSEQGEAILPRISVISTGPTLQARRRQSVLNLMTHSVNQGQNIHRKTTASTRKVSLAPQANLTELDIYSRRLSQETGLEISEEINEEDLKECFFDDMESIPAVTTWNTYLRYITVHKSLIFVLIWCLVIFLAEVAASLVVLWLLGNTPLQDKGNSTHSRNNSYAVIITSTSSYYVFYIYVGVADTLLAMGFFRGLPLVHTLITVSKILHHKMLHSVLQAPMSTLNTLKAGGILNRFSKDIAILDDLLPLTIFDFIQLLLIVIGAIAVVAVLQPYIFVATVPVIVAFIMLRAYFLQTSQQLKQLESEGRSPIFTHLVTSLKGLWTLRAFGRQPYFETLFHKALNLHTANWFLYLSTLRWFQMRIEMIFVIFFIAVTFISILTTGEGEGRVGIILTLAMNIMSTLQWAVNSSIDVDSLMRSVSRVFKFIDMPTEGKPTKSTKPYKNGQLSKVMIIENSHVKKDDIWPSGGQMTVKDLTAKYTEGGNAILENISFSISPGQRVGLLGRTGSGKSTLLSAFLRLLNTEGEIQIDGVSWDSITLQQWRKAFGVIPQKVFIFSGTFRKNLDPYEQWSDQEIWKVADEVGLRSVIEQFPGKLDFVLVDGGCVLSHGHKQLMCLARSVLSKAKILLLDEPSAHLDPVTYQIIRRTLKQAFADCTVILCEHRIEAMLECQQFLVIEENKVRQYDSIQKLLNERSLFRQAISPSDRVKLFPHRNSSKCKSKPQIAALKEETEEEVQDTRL

SMILES	% Activation (ΔF508-CFTR [1]) [%]	EC50 (ΔF508-CFTR [1]) [nM]	% Activation (ΔF508-CFTR [2]) [%]	EC50 (ΔF508-CFTR [2]) [nM]
CC(C)Oc1nn(C2CCCCC2)c2nc(C(=O)O)cc(-c3ccc(C(=O)N4CCN(C)CC4)cc3)c12 [compound 764, 1-cyclohexyl-4-[4-(4-methylpiperazine-1-carbonyl)phenyl]-3-[(propan-2-yl)oxy]-1H-pyrazolo[3,4-b]pyridine-6-carboxylic acid]	255.65	2410	85.92	3330
CC(C)c1nn(-c2ccc(F)cc2)c2nc(C(=O)O)cc(N3CC(N4CCOCC4)C3)c12 [compound 765, 1-(4-fluorophenyl)-4-[3-(morpholin-4-yl)azetidin-1-yl]-3-(propan-2-yl)-1H-pyrazolo[3,4-b]pyridine-6-carboxylic acid]	181.3	738	45.48	1670
CCCN1CCCN(c2cc(C(=O)O)nc3c2c(C(C)C)nn3-c2ccc(F)cc2)CC1 [compound 766, 1-(4-fluorophenyl)-3-(propan-2-yl)-4-(4-propyl-1,4-diazepan-1-yl)-1H-pyrazolo[3,4-b]pyridine-6-carboxylic acid]	213.4	1180	54.3	1670
CC(C)c1nn(-c2ccc(F)cc2)c2nc(C(=O)O)cc(N3CCCN(C4CCC4)CC3)c12 [compound 767, 4-(4-cyclobutyl-1,4-diazepan-1-yl)-1-(4-fluorophenyl)-3-(propan-2-yl)-1H-pyrazolo[3,4-b]pyridine-6-carboxylic acid]	210.1	1670	59.96	1670
CCCCN1CCCN(c2cc(C(=O)O)nc3c2c(C(C)C)nn3-c2ccc(F)cc2)CC1 [compound 768, 4-(4-butyl-1,4-diazepan-1-yl)-1-(4-fluorophenyl)-3-(propan-2-yl)-1H-pyrazolo[3,4-b]pyridine-6-carboxylic acid]	256.5	1670	79.69	1580
CC(C)c1nn(-c2ccc(F)cc2)c2nc(C(=O)O)cc(N3CCCN(C)CC3)c12 [compound 769, 1-(4-fluorophenyl)-4-(4-methyl-1,4-diazepan-1-yl)-3-(propan-2-yl)-1H-pyrazolo[3,4-b]pyridine-6-carboxylic acid]	157.2	1580	19.25	5000
CC(C)c1nn(-c2ccc(F)cc2)c2nc(C(=O)O)cc(N3CCN4CCC[C@@H]4C3)c12 [compound 770, 1-(4-fluorophenyl)-4-[(8aR)-hexahydropyrrolo[1,2-a]pyrazin-2(1H)-yl]-3-(propan-2-yl)-1H-pyrazolo[3,4-b]pyridine-6-carboxylic acid]	234.5	900	85.33	1670
CC(=O)N1CCN(c2cc(C(=O)O)nc3c2c(C(C)C)nn3-c2ccc(F)cc2)CC1 [compound 771, 4-(4-acetylpiperazin-1-yl)-1-(4-fluorophenyl)-3-(propan-2-yl)-1H-pyrazolo[3,4-b]pyridine-6-carboxylic acid]	290.8	1670	94.91	1670
CCN1CCN(c2cc(C(=O)O)nc3c2c(C(C)C)nn3-c2ccc(F)cc2)CC1 [compound 772, 4-(4-ethylpiperazin-1-yl)-1-(4-fluorophenyl)-3-(propan-2-yl)-1H-pyrazolo[3,4-b]pyridine-6-carboxylic acid]	226.6	1360	53.82	1670
CC(C)c1nn(-c2ccc(F)cc2)c2nc(C(=O)O)cc(N3CCN(CCO)CC3)c12 [compound 773, 1-(4-fluorophenyl)-4-[4-(2-hydroxyethyl)piperazin-1-yl]-3-(propan-2-yl)-1H-pyrazolo[3,4-b]pyridine-6-carboxylic acid]	141.8	5000	16.13	5000
